In patent publication US5399487A, “6-peptidylamino-1-naphthalenesulfonamides useful as fluorogenic proteolytic enzyme substrates” (Haematologic Technologies, Inc., priority 1993, dated 1995):

Columns and labels:
[1] = Fluorescence of 6-amino-1-naphthalenesulfonamides and substrates; type: physicochemical; conditions: for Relative Fluorescence: TBS, pH 7.4, 22°C., 1 μM, relative to ANSNH(i-C4 H9), excitation 352 nm, emission 470 nm; for Emission Maxima: free fluorophore
Description: Each of the 6-amino-1-naphthalenesulfonamide detecting groups, i.e., the free fluorophores, have excitation maxima near 350 nm with emission maxima ranging from 465 to 476 nm. Fluorescent measurements show a 2.2 fold range in the intensities of the fluorescent signals among the fifteen synthesized compounds. The 6-peptidylamino-1-naphthalenesulfonamide fluorogenic substrates have a relative fluorescent intensity at 470 nm which is less than 0.1% of that of the respective free fluorophore. Detection of the free fluorophore can be reliably achieved (>2× background) at a concentration of about 10^-9 M in the presence of about 10^-6 fluorogenic substrate.
^a Measured in TBS, pH 7.4. 22°C.. Concentration of ANSNR
R2 = 1 μM. Fluorescence is expressed relative of ANSNH(i-C4
H9). Excitation wavelength = 352 nm, Emission wavelength = 470 nm.

thrombin (IIa) = biological target: T1, thrombin (IIa) (Homo sapiens, UniProt P00734); test: Fluorogenic enzyme assay (Example 5); type: biochemical; set-up: key to Hydrolysis kinetic constants, IIa (symbol b): Slow substrate hydrolysis, no kinetic constants calculated; conditions: for Km / kcat /Km, IIa / kcat, IIa / Hydrolysis kinetic constants, IIa (symbol b): Table 7; for Time (min) for 10% hydrolysis, IIa: enzyme 100 nM, substrate 1 μM
T1 construct: 0.5 nM human thrombin (IIa)
Description: (§1) Enzyme assays (except factor VIIa assays, see below) were conducted in 20 mM Tris, 150 mM NaCl, pH 7.4 (TBS) at room temperature (22° C.). The final volume for all reaction mixtures was 2.0 ml. Fluorogenic substrates were dissolved in DMSO to a stock concentration of 10 mM. The 10 mM stock solution was diluted in TBS to the final working concentration prior to all assays. Enzyme was added to mixtures containing buffer components and substrate and the initial rate of substrate hydrolysis was measured as the change in fluorescent intensity over time, corresponding to the generation of the particular 6-amino-1-naphthalenesulfonamide fluorophore from the provided substrate. Quantitation of substrate hydrolysis was accomplished by establishing a standard curve from the appropriate fluorescent moiety. Fluorescence was monitored (continuously or discontinuously) using a Perkin Elmer fluorescence spectrophotometer, model MPF-44A, equipped with a standard chart recorder. The fluorophore was detected using monochrometers set at an excitation wavelength of 352 nm and an emission wavelength of 470 nm. Light scattering artifacts were minimized using a 399 nm cut off filter in the emission light beam.
(§2) The kinetic constants of substrate hydrolysis were determined using the non-linear least squares regression analysis program ENZFITTER (Cambridge, UK). This program was used to iteratively fit initial rates of substrate hydrolysis to the Michaelis-Menten equation and the kinetic constants of substrate hydrolysis (Km) and (kcat) were calculated.

factor Xa = factor Xa (Homo sapiens, UniProt P00742); test: Fluorogenic enzyme assay (Example 5); type: biochemical; conditions: for Km / kcat /Km, Xa / kcat, Xa: Table 7; for Time (min) for 10% hydrolysis, Xa: enzyme 100 nM, substrate 1 μM
Description: as §1, §2

[2] = biological target: activated protein C (APC) (Homo sapiens, UniProt P04070); test: Fluorogenic enzyme assay (Example 5); type: biochemical; set-up: key to Hydrolysis kinetic constants, APC (symbol b): Slow substrate hydrolysis, no kinetic constants calculated; conditions: for Hydrolysis kinetic constants, APC (symbol b) / Km / kcat /Km, APC / kcat, APC: Table 7; for Time (min) for 10% hydrolysis, APC: enzyme 100 nM, substrate 1 μM
Description: as §1, §2

plasmin (Plm) = plasmin (Plm) (Homo sapiens, UniProt P00747); test: Fluorogenic enzyme assay (Example 5); type: biochemical; conditions: enzyme 100 nM, substrate 1 μM; for Time (min) for 5% hydrolysis, Plm: footnote b
Description: as §1, §2

[3] = biological target: tissue plasminogen activator (t-PA) (Homo sapiens, UniProt P00750); test: Fluorogenic enzyme assay (Example 5); type: biochemical; conditions: after 24 hrs; enzyme 100 nM, substrate 1 μM
Description: as §1, §2

urokinase (u-PA) = urokinase (u-PA) (Homo sapiens, UniProt P00749); test: Fluorogenic enzyme assay (Example 5); type: biochemical; conditions: enzyme 100 nM, substrate 1 μM; for hydrolysis, u-PA (symbol N.D.): after 24 hrs
Description: as §1, §2

Sequence of factor Xa (P00742 235-488 limits assumed): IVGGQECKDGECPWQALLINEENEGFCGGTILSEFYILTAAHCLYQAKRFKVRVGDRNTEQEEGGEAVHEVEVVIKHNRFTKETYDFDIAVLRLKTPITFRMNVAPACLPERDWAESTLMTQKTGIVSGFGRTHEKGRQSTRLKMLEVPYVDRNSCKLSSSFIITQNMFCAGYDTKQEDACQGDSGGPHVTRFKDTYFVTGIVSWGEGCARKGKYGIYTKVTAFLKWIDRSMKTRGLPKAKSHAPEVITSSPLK
Sequence of factor Xa (P00742 41-179 limits assumed): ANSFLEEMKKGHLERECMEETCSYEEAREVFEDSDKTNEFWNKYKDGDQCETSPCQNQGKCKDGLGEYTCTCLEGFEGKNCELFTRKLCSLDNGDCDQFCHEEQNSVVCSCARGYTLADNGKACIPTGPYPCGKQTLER
Sequence of plasmin (Plm) (P00747 581-810 limits assumed, species assumed): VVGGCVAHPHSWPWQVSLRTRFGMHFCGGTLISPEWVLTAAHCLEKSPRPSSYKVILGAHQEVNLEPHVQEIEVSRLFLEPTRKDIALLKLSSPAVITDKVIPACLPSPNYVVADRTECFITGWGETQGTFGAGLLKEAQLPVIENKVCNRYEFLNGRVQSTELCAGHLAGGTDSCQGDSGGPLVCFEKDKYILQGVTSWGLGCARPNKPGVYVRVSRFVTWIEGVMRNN
Sequence of plasmin (Plm) (P00747 97-580 limits assumed, species assumed): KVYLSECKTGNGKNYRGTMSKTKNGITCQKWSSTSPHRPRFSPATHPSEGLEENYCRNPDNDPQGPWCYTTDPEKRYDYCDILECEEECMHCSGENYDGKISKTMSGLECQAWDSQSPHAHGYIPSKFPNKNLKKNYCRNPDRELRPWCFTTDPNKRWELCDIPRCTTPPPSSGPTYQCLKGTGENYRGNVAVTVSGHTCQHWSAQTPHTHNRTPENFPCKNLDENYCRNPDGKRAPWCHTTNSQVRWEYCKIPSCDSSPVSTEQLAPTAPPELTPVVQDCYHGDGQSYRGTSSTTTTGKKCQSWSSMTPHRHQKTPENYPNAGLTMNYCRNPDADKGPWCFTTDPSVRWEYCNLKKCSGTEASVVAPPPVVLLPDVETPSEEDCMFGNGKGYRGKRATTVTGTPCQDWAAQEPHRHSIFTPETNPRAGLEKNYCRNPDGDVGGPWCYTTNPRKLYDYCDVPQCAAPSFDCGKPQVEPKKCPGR
Sequence of tissue plasminogen activator (t-PA) (P00750 36-562, species assumed): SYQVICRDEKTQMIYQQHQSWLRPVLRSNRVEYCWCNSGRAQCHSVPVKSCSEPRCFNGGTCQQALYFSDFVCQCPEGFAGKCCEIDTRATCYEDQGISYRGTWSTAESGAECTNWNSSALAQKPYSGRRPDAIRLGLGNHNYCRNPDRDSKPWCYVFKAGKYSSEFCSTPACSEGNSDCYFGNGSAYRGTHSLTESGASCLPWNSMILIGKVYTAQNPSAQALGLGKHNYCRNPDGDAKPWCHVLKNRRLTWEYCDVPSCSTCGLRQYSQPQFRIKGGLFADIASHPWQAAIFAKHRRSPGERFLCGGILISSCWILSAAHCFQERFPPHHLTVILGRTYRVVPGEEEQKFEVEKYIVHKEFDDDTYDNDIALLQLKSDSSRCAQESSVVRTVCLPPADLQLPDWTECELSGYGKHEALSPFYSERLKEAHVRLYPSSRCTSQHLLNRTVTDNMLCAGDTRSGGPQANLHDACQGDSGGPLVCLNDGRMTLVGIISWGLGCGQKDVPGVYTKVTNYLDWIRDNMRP
Sequence of activated protein C (APC) (P04070 212-461 limits assumed): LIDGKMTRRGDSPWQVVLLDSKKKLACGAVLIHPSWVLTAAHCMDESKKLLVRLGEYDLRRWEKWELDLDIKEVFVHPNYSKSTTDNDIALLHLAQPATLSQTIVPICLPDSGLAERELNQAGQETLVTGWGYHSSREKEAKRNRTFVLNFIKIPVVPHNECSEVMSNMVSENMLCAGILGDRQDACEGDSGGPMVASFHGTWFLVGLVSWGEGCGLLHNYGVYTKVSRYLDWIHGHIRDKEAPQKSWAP
Sequence of activated protein C (APC) (P04070 43-197 limits assumed): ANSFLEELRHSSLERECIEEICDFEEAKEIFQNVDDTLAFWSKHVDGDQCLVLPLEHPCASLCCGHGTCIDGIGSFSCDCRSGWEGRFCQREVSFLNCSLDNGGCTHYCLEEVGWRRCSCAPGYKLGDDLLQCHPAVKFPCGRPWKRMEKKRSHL

CNS(=O)(=O)c1cccc2cc(N)ccc12 [ANSNR1 R2; H; CH3]
Relative Fluorescence [1]: 92 | Emission Maxima [1]: 468 nm

Br.CN(C)S(=O)(=O)c1cccc2cc(NC(=O)[C@H](CCCNC(=N)N)NC(=O)OCc3ccccc3)ccc12 [(N^α -Z)ArgANSNR1 R2; CH3; CH3]
Km (thrombin (IIa)): 22.6 µM | kcat /Km, IIa (thrombin (IIa)): 630 M⁻¹ s⁻¹ | kcat, IIa (thrombin (IIa)): 0.01 s⁻¹ | Time (min) for 10% hydrolysis, IIa (thrombin (IIa)): 45 min | Km (factor Xa): 91.4 µM | kcat /Km, Xa (factor Xa): 1020 M⁻¹ s⁻¹ | kcat, Xa (factor Xa): 0.09 s⁻¹ | Time (min) for 10% hydrolysis, Xa (factor Xa): 15 min | Hydrolysis kinetic constants, APC (symbol b) [2]: b | Time (min) for 10% hydrolysis, APC [2]: 200 min | Time (min) for 10% hydrolysis, Plm (plasmin (Plm)): 1140 min | hydrolysis, t-PA (symbol N.D.) [3]: N.D. (Less than 5% hydrolysis after 24 hrs.) | hydrolysis, u-PA (symbol N.D.) (urokinase (u-PA)): N.D. (Less than 5% hydrolysis after 24 hrs.)

CN(C)S(=O)(=O)c1cccc2cc(N)ccc12 [ANSNR1 R2; CH3; CH3]
Relative Fluorescence [1]: 65 | Emission Maxima [1]: 472 nm

Br.CC(C)(C)NS(=O)(=O)c1cccc2cc(NC(=O)[C@H](CCCNC(=N)N)NC(=O)OCc3ccccc3)ccc12 [(N^α -Z)ArgANSNR1 R2; H; t-C4 H9]
Km (thrombin (IIa)): 24 µM | kcat /Km, IIa (thrombin (IIa)): 930 M⁻¹ s⁻¹ | kcat, IIa (thrombin (IIa)): 0.02 s⁻¹ | Time (min) for 10% hydrolysis, IIa (thrombin (IIa)): 34 min | Km (factor Xa): 114 µM | kcat /Km, Xa (factor Xa): 487 M⁻¹ s⁻¹ | kcat, Xa (factor Xa): 0.06 s⁻¹ | Time (min) for 10% hydrolysis, Xa (factor Xa): 45 min | Km [2]: 738 µM | kcat /Km, APC [2]: 540 M⁻¹ s⁻¹ | kcat, APC [2]: 0.4 s⁻¹ | Time (min) for 10% hydrolysis, APC [2]: 45 min | Time (min) for 5% hydrolysis, Plm (plasmin (Plm)): 910 min | hydrolysis, t-PA (symbol N.D.) [3]: N.D. (Less than 5% hydrolysis after 24 hrs.) | Time (min) for 10% hydrolysis, u-PA (urokinase (u-PA)): 1260 min

Br.CCCNS(=O)(=O)c1cccc2cc(NC(=O)[C@H](CCCNC(=N)N)NC(=O)OCc3ccccc3)ccc12 [(N^α -Z)ArgANSNR1 R2; H; C3 H7]
Km (thrombin (IIa)): 22.2 µM | kcat /Km, IIa (thrombin (IIa)): 1580 M⁻¹ s⁻¹ | kcat, IIa (thrombin (IIa)): 0.04 s⁻¹ | Time (min) for 10% hydrolysis, IIa (thrombin (IIa)): 27 min | Km (factor Xa): 125 µM | kcat /Km, Xa (factor Xa): 593 M⁻¹ s⁻¹ | kcat, Xa (factor Xa): 0.07 s⁻¹ | Time (min) for 10% hydrolysis, Xa (factor Xa): 40 min | Km [2]: 320 µM | kcat /Km, APC [2]: 1470 M⁻¹ s⁻¹ | kcat, APC [2]: 0.47 s⁻¹ | Time (min) for 10% hydrolysis, APC [2]: 15 min | Time (min) for 5% hydrolysis, Plm (plasmin (Plm)): 1620 min | hydrolysis, t-PA (symbol N.D.) [3]: N.D. (Less than 5% hydrolysis after 24 hrs.) | Time (min) for 10% hydrolysis, u-PA (urokinase (u-PA)): 220 min

Br.N=C(N)NCCC[C@H](NC(=O)OCc1ccccc1)C(=O)Nc1ccc2c(S(=O)(=O)N3CCOCC3)cccc2c1 [(N^α -Z)ArgANSNR1 R2; morpholyl]
Hydrolysis kinetic constants, IIa (symbol b) (thrombin (IIa)): b | Time (min) for 10% hydrolysis, IIa (thrombin (IIa)): 76 min | Km (factor Xa): 80 µM | kcat /Km, Xa (factor Xa): 625 M⁻¹ s⁻¹ | kcat, Xa (factor Xa): 0.05 s⁻¹ | Time (min) for 10% hydrolysis, Xa (factor Xa): 45 min | Hydrolysis kinetic constants, APC (symbol b) [2]: b | Time (min) for 10% hydrolysis, APC [2]: 171 min | Time (min) for 5% hydrolysis, Plm (plasmin (Plm)): 1220 min | hydrolysis, t-PA (symbol N.D.) [3]: N.D. (Less than 5% hydrolysis after 24 hrs.) | hydrolysis, u-PA (symbol N.D.) (urokinase (u-PA)): N.D. (Less than 5% hydrolysis after 24 hrs.)

Nc1ccc2c(S(=O)(=O)N3CCCCCC3)cccc2c1 [ANSNR1 R2; (CH2)6]
Relative Fluorescence [1]: 96 | Emission Maxima [1]: 469 nm

CCCNS(=O)(=O)c1cccc2cc(N)ccc12 [ANSNR1 R2; H; C3 H7]
Relative Fluorescence [1]: 93 | Emission Maxima [1]: 470 nm

Nc1ccc2c(S(=O)(=O)N3CCOCC3)cccc2c1 [ANSNR1 R2; morpholyl]
Relative Fluorescence [1]: 41 | Emission Maxima [1]: 476 nm

CC(C)NS(=O)(=O)c1cccc2cc(N)ccc12 [ANSNR1 R2; H; i-C3 H7]
Relative Fluorescence [1]: 76 | Emission Maxima [1]: 468 nm

CCN(CC)S(=O)(=O)c1cccc2cc(N)ccc12 [ANSNR1 R2; C2 H5; C2 H5, 6-amino-1-(N,N-diethyl)naphthalenesulfonamide]
Relative Fluorescence [1]: 89 | Emission Maxima [1]: 470 nm

Br.N=C(N)NCCC[C@H](NC(=O)OCc1ccccc1)C(=O)Nc1ccc2c(S(=O)(=O)N3CCCCCC3)cccc2c1 [(N^α -Z)ArgANSNR1 R2; (CH2)6]
Hydrolysis kinetic constants, IIa (symbol b) (thrombin (IIa)): b | Time (min) for 10% hydrolysis, IIa (thrombin (IIa)): 90 min | Km (factor Xa): 427 µM | kcat /Km, Xa (factor Xa): 293 M⁻¹ s⁻¹ | kcat, Xa (factor Xa): 0.13 s⁻¹ | Time (min) for 10% hydrolysis, Xa (factor Xa): 20 min | Hydrolysis kinetic constants, APC (symbol b) [2]: b | Time (min) for 10% hydrolysis, APC [2]: 813 min | Time (min) for 5% hydrolysis, Plm (plasmin (Plm)): 770 min | hydrolysis, t-PA (symbol N.D.) [3]: N.D. (Less than 5% hydrolysis after 24 hrs.) | hydrolysis, u-PA (symbol N.D.) (urokinase (u-PA)): N.D. (Less than 5% hydrolysis after 24 hrs.)

Br.CC(C)NS(=O)(=O)c1cccc2cc(NC(=O)[C@H](CCCNC(=N)N)NC(=O)OCc3ccccc3)ccc12 [(N^α -Z)ArgANSNR1 R2; H; i-C3 H7]
Km (thrombin (IIa)): 25 µM | kcat /Km, IIa (thrombin (IIa)): 1180 M⁻¹ s⁻¹ | kcat, IIa (thrombin (IIa)): 0.03 s⁻¹ | Time (min) for 10% hydrolysis, IIa (thrombin (IIa)): 34 min | Km (factor Xa): 102 µM | kcat /Km, Xa (factor Xa): 800 M⁻¹ s⁻¹ | kcat, Xa (factor Xa): 0.08 s⁻¹ | Time (min) for 10% hydrolysis, Xa (factor Xa): 36 min | Km [2]: 343 µM | kcat /Km, APC [2]: 510 M⁻¹ s⁻¹ | kcat, APC [2]: 0.17 s⁻¹ | Time (min) for 10% hydrolysis, APC [2]: 50 min | Time (min) for 5% hydrolysis, Plm (plasmin (Plm)): 1370 min | hydrolysis, t-PA (symbol N.D.) [3]: N.D. (Less than 5% hydrolysis after 24 hrs.) | Time (min) for 10% hydrolysis, u-PA (urokinase (u-PA)): 1260 min

CC(C)(C)NS(=O)(=O)c1cccc2cc(N)ccc12 [ANSNR1 R2; H; t-C4 H9]
Relative Fluorescence [1]: 112 | Emission Maxima [1]: 465 nm

Nc1ccc2c(S(=O)(=O)N3CCCCC3)cccc2c1 [ANSNR1 R2; (CH2)5]
Relative Fluorescence [1]: 68 | Emission Maxima [1]: 473 nm

Br.CCN(CC)S(=O)(=O)c1cccc2cc(NC(=O)[C@H](CCCNC(=N)N)NC(=O)OCc3ccccc3)ccc12 [(N^α -Z)ArgANSNR1 R2; C2 H5; C2 H5, 6-(N^α -benzyloxycarbonyl-L-arginyl)amino-1-(N,N-diethyl)napthalenesulfonamide hydrobromides]
Hydrolysis kinetic constants, IIa (symbol b) (thrombin (IIa)): b | Time (min) for 10% hydrolysis, IIa (thrombin (IIa)): 165 min | Km (factor Xa): 200 µM | kcat /Km, Xa (factor Xa): 1290 M⁻¹ s⁻¹ | kcat, Xa (factor Xa): 0.26 s⁻¹ | Time (min) for 10% hydrolysis, Xa (factor Xa): 14 min | Time (min) for 10% hydrolysis, APC [2]: 1080 min | Time (min) for 5% hydrolysis, Plm (plasmin (Plm)): 1370 min | hydrolysis, t-PA (symbol N.D.) [3]: N.D. (Less than 5% hydrolysis after 24 hrs.) | hydrolysis, u-PA (symbol N.D.) (urokinase (u-PA)): N.D. (Less than 5% hydrolysis after 24 hrs.)

Nc1ccc2c(S(=O)(=O)NCc3ccccc3)cccc2c1 [ANSNR1 R2; H; benzyl]
Relative Fluorescence [1]: 75 | Emission Maxima [1]: 467 nm

CCCCNS(=O)(=O)c1cccc2cc(N)ccc12 [ANSNR1 R2; H; C4 H9]
Relative Fluorescence [1]: 63 | Emission Maxima [1]: 467 nm

CC(C)CNS(=O)(=O)c1cccc2cc(N)ccc12 [ANSNR1 R2; H; i-C4 H9]
Relative Fluorescence [1]: 100 | Emission Maxima [1]: 468 nm

CCNS(=O)(=O)c1cccc2cc(N)ccc12 [ANSNR1 R2; H; C2 H5]
Relative Fluorescence [1]: 78 | Emission Maxima [1]: 466 nm

Nc1ccc2c(S(=O)(=O)NC3CCCCC3)cccc2c1 [ANSNR1 R2; H; cyclo-C6 H11]
Relative Fluorescence [1]: 101 | Emission Maxima [1]: 466 nm

CCCCCNS(=O)(=O)c1cccc2cc(N)ccc12 [ANSNR1 R2; H; C5 H11]
Relative Fluorescence [1]: 90 | Emission Maxima [1]: 469 nm
